Measurements: US6344454B1, “Nonsteroidal gestagens” (Schering Aktiengesellschaft, priority 1997, dated 2002)

Tests used:
gestagen receptor = target: T1, gestagen receptor (Oryctolagus cuniculus, UniProt P06186); experiment: gestagen receptor bonding test (cytosol from rabbit uterus homogenate, 3H-progesterone as reference substance); format: binding
T1 construct: using cytosol from rabbit uterus homogenate; from tissue; host or cells: rabbit uterus cytosol
T1 sequence (P06186 1-930): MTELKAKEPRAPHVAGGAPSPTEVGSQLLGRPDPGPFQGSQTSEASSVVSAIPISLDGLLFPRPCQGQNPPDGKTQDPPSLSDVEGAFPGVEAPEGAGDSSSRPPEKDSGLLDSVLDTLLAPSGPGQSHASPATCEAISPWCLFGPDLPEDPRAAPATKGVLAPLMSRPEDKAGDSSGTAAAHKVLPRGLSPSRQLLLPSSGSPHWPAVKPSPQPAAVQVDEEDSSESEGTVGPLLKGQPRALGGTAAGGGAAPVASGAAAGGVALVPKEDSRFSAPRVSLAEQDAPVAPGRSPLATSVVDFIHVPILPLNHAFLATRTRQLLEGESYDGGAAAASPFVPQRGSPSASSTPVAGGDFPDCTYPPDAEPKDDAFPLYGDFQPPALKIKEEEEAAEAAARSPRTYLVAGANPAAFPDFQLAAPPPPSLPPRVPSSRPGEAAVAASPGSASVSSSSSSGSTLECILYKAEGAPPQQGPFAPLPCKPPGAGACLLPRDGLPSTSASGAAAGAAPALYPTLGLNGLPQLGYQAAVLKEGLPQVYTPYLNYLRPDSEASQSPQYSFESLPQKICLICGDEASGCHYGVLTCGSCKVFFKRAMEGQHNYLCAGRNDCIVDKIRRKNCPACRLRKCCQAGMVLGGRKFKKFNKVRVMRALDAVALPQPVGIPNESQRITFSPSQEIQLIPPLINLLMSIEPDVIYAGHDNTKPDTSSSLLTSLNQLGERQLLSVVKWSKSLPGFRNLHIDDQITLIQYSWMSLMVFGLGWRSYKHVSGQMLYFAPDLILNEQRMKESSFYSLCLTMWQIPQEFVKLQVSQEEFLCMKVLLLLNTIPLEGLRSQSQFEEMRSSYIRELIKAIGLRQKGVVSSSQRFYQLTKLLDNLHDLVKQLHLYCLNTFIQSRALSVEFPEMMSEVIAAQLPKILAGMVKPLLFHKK
Excerpt: In the gestagen receptor bonding test on the gestagenic action using cytosol from rabbit uterus homogenate and from ^3H-progesterone as a reference substance, the new compounds show a strong to very strong affinity to the gestagen receptor (see Table 1).

In the case of `CC(C)(CC(O)(CNc1ccc2c(c1)COC2=O)C(F)(F)F)c1ccccc1` (racemic) [Example 65], the melting point was 154 °C and the “Competition Factor (Reference Substance 3H-Progesterone)” value (shortened to “Competition Factor”) (gestagen receptor) was 0.17.
For `CC(C)Oc1ccc(F)cc1C(C)(C)CC(O)(C(=O)Nc1ccc2c(c1)COC2=O)C(F)(F)F` (racemic) [Example 155], the melting point was 153 to 154 °C.
Work on `CC(C)(CC(O)(C(=O)Nc1ccc2c(c1)COC2=O)C(F)(F)F)c1cccs1` (single isomer, unassigned; (+)) [Example 103 (+)-2-thienyl, (+)-5-[2-hydroxy-4-methyl-4-(2-thienyl)-2-trifluoromethyl-valeroylamino]-phthalide] yielded a melting point of 166 °C.
For `CC(CC(O)(C(=O)Nc1ccc([N+](=O)[O-])c(C(F)(F)F)c1)C(F)(F)F)c1ccccc1` (stereo not shown) [(*) (Melting point 141-142° C.), reference compound], the “Competition Factor” value (gestagen receptor) was 17.
In the case of `CC(CC(O)(C(=O)Nc1ccc([N+](=O)[O-])c(C(F)(F)F)c1)C(F)(F)F)c1ccccc1` (stereo not shown) [(*) (Melting point 161° C.), reference compound], the “Competition Factor” value (gestagen receptor) was 2.0.
In the case of `COc1cccc(C(C)(C)CC(O)(C(=O)Nc2ccc3c(c2)COC3=O)C(F)(F)F)c1` (stereo not shown) [Example 4, 5-[2-Hydroxy-4-(3-methoxyphenyl)-4-methyl-2-trifluoromethyl-valeroylamino]-phthalide], the melting point was 129 to 130 °C.
`Cc1noc(=O)c2ccc(NC(=O)C(O)(CC(C)(C)c3ccccc3)C(F)(F)F)cc12` (stereo not shown) [Example 42, 6-(2-Hydroxy-4-methyl-4-phenyl-2-trifluoromethyl-valeroyl-amino)-4-methyl-2,3-benzoxazin-1-one] gave a melting point of 172 to 173 °C.
For `Cc1noc(=O)c2ccc(NC(=O)C(O)(CC(C)(C)c3ccccc3)C(F)(F)F)cc12` (stereo not shown) [Example 106], the melting point was 123 °C and the “Competition Factor” value (gestagen receptor) was 0.55.
